Test results as given in patent publication US7129269B2, “Compound” (Sterix Ltd., priority 1996, dated 2006).

Tests used:
oestrone sulphatase [1] = target: T1, oestrone sulphatase (Homo sapiens, UniProt P08842); assay: Oestrone sulphatase inhibition in placental microsomes; type: biochemical; conditions: placental microsomes
T1 construct: from tissue; host or cells: placenta (microsomes, 100,000 g)
T1 sequence (P08842 22-583): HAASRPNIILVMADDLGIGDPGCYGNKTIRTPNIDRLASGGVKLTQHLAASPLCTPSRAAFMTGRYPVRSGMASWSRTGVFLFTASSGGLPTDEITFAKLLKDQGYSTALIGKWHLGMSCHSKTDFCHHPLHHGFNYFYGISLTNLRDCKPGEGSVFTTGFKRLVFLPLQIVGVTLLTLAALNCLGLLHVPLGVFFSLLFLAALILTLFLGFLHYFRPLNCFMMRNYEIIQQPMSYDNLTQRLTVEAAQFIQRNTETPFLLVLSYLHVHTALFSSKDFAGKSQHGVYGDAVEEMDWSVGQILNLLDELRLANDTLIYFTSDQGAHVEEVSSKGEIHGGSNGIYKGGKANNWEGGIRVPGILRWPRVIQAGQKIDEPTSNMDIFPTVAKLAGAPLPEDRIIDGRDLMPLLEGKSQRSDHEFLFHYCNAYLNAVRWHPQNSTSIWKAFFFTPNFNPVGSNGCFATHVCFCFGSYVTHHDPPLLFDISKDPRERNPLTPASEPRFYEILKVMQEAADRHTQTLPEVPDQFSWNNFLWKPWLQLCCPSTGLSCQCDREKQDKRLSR

[2] = target: T2, oestrone sulphatase (E1-STS) (Homo sapiens, UniProt P08842); assay: Oestrone sulphatase (E1-STS) inhibition in intact MCF-7 breast cancer cells; type: cell-based
T2 construct: endogenous in cells; host or cells: MCF-7 breast cancer cells
T2 sequence (P08842 22-583): T1 sequence (P08842 22-583)

aromatase = target: T3, aromatase (Homo sapiens, UniProt P11511)
T3 sequence (P11511 1-503): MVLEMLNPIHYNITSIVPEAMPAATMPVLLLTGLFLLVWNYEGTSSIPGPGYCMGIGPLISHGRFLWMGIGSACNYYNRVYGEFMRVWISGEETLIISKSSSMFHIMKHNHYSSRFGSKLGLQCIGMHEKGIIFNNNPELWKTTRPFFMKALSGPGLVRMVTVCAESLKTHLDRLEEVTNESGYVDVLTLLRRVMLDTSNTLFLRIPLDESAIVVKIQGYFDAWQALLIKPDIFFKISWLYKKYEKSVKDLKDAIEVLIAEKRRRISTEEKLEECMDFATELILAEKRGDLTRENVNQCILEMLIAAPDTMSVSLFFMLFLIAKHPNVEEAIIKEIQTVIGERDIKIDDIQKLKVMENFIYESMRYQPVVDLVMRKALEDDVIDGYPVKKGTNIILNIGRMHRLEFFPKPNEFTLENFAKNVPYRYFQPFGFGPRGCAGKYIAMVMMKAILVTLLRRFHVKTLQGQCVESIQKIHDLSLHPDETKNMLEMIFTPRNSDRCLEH

oestrone sulphatase [3] = target: T4, oestrone sulphatase (Rattus norvegicus, UniProt P15589); assay: In vivo inhibition of oestrone sulphatase activity in rat liver; conditions: 24 hours after single oral dose in propylene glycol, 10 mg/Kg
T4 construct: from tissue; host or cells: rat liver
T4 sequence (P15589 20-577): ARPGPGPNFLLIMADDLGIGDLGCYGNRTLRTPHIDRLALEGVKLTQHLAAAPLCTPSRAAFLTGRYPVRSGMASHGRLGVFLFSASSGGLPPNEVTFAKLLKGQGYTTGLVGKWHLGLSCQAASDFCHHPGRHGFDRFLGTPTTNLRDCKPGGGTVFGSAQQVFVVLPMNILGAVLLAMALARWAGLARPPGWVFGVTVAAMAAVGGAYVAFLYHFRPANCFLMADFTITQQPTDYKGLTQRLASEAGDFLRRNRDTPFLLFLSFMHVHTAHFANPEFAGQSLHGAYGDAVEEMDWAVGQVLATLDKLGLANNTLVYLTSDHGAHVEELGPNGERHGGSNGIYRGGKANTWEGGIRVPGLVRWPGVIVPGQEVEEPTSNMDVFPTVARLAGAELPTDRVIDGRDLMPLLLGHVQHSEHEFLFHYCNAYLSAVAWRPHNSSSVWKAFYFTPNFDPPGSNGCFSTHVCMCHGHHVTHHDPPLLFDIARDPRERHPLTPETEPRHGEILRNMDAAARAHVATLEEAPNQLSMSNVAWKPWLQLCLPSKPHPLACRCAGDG
Experimental: FIG. 11 presents in vivo inhibition of oestrone sulphatase activity in rat liver for two isoflavones according to the present invention. […] Compounds were administered as a single 10 mg/Kg dose. Oestrone sulphatase activity was assayed in tissue samples obtained 24 h after drug administration.

SMILES | % INHIBITION Sulphatase (oestrone sulphatase [1]; 1 μM) [%] | % INHIBITION Sulphatase (oestrone sulphatase [1]; 10 μM) [%] | % Inhibition of sulphatase activity in MCF-7 cells ([2]; 1 μM) [%] | % Inhibition of sulphatase activity in MCF-7 cells ([2]; 10 μM) [%] | % Inhibition of aromatase activity in placental microsomes at 10 μM (aromatase) [%] | % INHIBITION Sulphatase (oestrone sulphatase [1]; 10 μM, listed as 5,7-dehydroxy flavanone-4′-sulphamate) [%] | % Inhibition of sulphatase activity in MCF-7 cells ([2]; 0.1 μM) [%] | % Inhibition of oestrone sulphatase in vivo (oestrone sulphatase [3]) [%]
NS(=O)(=O)Oc1cc(O)c2c(=O)cc(-c3ccccc3)oc2c1 [Compound 3, 5-Hydroxyflavone 7-O-sulphamate] | 8 | 21 | 4.2 ± 0.9 | 20.6 ± 1.2 | 85 |  |  | 
NS(=O)(=O)Oc1ccc(C2CC(=O)c3c(O)cc(O)cc3O2)cc1 (stereo not shown) [Compound 20, 5,7-Dihydroxyflavanone 4′-O-sulphamate] |  |  | 79 ± 1.2 | > 99 |  | 98 | 30 ± 2.8 | 44.2 ± 3.8
